What all share (assay type): cell-based
In data set [1] the test system is HepG2 cells. The data set is described as follows: MTT assay in HepG2 cells. As to conditions: compounds tested at 10 μM; normalized with OD570-650 of vehicle treatment; in % (unit assumed).
Data set [2] has as its system human PBMC. The experiment in a line: IL-8 release in human PBMC (ELISA). As to conditions: Homo sapiens, PBMC, 18 h; 0.5 μM; IL-8 release, normalized to LPS positive control=100. The protocol:
In vitro activities in human peripheral blood mononuclear cells (PBMC). Human PBMC were isolated from buffy coats obtained from the San Diego Blood Bank (San Diego, Calif.) as described previously.^5,6 PBMC (1×10^6/mL) were incubated with various compounds in complete RPMI (Omega Scientific) for 18 h at 37° C., 5% CO2 and culture supernatants were collected. The levels of IL-8 in the supernatants were determined by ELISA (BD Biosciences).
A general note: In an ELISA, binding on a coated surface is turned into a signal by an enzyme label.

Data set [3] addresses T1, TLR4/MD-2/CD14 (Homo sapiens, UniProt O00206+Q9Y6Y9).
T1 construct: host or cells: HEK293 (HEK Blue hTLR4)
The experiment in a line: hTLR4 HEK Blue reporter cells, NF-κB SEAP secretion (QuantiBlue OD630). As to conditions: for hTLR4 0.5 μM: Quantiblue OD630 of hTLR4 HEK Blue cells, normalized to LPS positive control=100; for Activity relative to compound 1a (SAR in words): TLR4 reporter cells and hPBMC. The protocol: In vitro assays using TLR reporter cell lines. Murine or humanTLR4 HEK Blue™ cells (Invivogen, 2.5×10^4 cells per well of a 96 well plate), or NF-κB/SEAPorter™ HEK 293 cells (Imgenex, San Diego, Calif.) for human TLR2, TLR3, TLR5, TLR7, TLR8, or TLR9 (5×10^4 cells per well of 96 well plate) were incubated with graded doses of the test compound. The culture supernatants were harvested after a 20-24 h incubation period. Secreted alkaline phosphatase (SEAP) activity in the supernatants was determined by a colorimetric assay, using either the SEAPorter Assay Kit (Imgenex, San Diego, Calif.), with absorbance read at 405 nm, or QuantiBlue (Invivogen), with absorbance read at 630 nm. In some experiments, graded concentrations of LPS-RS ([…], Invivogen) were used to test TLR4-specific binding of the hit compound.

SMILES strings stand for the structures.

T1 sequence (O00206 24-839): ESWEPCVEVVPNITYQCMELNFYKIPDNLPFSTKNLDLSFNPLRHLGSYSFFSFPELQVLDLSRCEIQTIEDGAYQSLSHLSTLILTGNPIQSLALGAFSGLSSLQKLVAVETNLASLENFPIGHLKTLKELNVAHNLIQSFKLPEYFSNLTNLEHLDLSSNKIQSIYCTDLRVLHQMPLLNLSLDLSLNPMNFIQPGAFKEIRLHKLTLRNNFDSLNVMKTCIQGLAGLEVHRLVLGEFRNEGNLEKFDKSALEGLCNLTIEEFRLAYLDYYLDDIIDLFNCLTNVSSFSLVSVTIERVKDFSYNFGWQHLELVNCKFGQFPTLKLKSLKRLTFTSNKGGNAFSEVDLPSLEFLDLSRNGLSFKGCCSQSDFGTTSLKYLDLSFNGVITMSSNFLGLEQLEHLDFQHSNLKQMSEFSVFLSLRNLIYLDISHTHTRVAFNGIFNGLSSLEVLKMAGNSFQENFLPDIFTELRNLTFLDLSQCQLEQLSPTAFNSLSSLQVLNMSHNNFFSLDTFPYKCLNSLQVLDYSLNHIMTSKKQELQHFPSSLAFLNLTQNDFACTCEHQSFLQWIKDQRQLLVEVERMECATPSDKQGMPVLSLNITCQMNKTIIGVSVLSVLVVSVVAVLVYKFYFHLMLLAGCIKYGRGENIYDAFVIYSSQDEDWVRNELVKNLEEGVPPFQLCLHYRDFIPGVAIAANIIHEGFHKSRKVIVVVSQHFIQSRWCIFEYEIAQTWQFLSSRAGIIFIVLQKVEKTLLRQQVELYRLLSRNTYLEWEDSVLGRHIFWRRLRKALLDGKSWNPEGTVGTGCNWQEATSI
T1 sequence (Q9Y6Y9 19-160): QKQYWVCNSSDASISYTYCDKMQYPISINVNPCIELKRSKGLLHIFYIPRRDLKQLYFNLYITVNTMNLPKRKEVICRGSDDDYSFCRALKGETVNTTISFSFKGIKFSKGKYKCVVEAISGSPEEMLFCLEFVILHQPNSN

On to `CCOC(=O)c1nc(Nc2cc(Oc3ccc(C)cc3)cc([N+](=O)[O-])c2)c2ccccc2n1` [Compound 1d, Ethyl 4-((3-nitro-5-(p-tolyloxy)phenyl)amino)quinazoline-2-carboxylate], for which the “HepG2 MT” value in data set [1] is 108.8. Moreover, the IL-8 release (% of LPS control) at 0.5 µM in data set [2] was 0.4%. In addition, in data set [3], the “hTLR4 0.5 μM” value was 0.5.

Regarding `CC(C)OC(=O)c1nc(Nc2cc(Oc3ccccc3Br)cc([N+](=O)[O-])c2)c2ccccc2n1` [Compound 13g, Isopropyl 4-((3-(2-bromophenoxy)-5-nitrophenyl)amino)quinazoline-2-carboxylate], the “HepG2 MT” value in data set [1] came out at 106.5. Moreover, in data set [2], the IL-8 release (% of LPS control) at 0.5 µM worked out at 19.2%. For the same compound, the “hTLR4 0.5 μM” value in data set [3] turned out to be 67.8.

As to `CCNC(=O)c1nc(Nc2cc(Oc3ccccc3)cc([N+](=O)[O-])c2)c2ccccc2n1` [Compound 8a, N-Ethyl-4-((3-nitro-5-phenoxyphenyl)amino)quinazoline-2-carboxamide], the “HepG2 MT” value in data set [1] was 107.4. The compound also yielded an IL-8 release (% of LPS control) at 0.5 µM in data set [2] of 1.5%. The “hTLR4 0.5 μM” value in data set [3] was determined as 2.2.

As for `CC(C)CCOC(=O)c1nc(Nc2cc(Oc3ccccc3)cc([N+](=O)[O-])c2)c2ccccc2n1` [Compound 12a, Isopentyl 4-((3-nitro-5-phenoxyphenyl)amino)quinazoline-2-carboxylate], in data set [1], the “HepG2 MT” value came out at 63.4. Also, the IL-8 release (% of LPS control) at 0.5 µM in data set [2] is 2.2%. Moreover, in data set [3], the “hTLR4 0.5 μM” value is given as 8.4.

Consider `CCOC(=O)c1nc(Nc2cc(Oc3ccccc3CC)cc([N+](=O)[O-])c2)c2ccccc2n1` [Compound 1e, Ethyl 4-((3-(2-ethylphenoxy)-5-nitrophenyl)amino)quinazoline-2-carboxylate], for which the “HepG2 MT” value in data set [1] is reported as 98.9. This compound also yielded an IL-8 release (% of LPS control) at 0.5 µM in data set [2] of 3.2%. Further, in data set [3], the “hTLR4 0.5 μM” value came out at 4.2 and the “Activity relative to compound 1a (SAR in words)” value (from here on “Activity relative to compound 1a”) was “substantial loss of activity”.

As to `CCOC(=O)c1nc(Nc2cc(Oc3ccccc3C)cc([N+](=O)[O-])c2)c2ccccc2n1` [Compound 1b, Ethyl 4-((3-nitro-5-(o-tolyloxy)phenyl)amino)quinazoline-2-carboxylate], the “HepG2 MT” value in data set [1] was found to be 96.7. Moreover, the IL-8 release (% of LPS control) at 0.5 µM in data set [2] worked out at 20.5%. In addition, in data set [3], the “hTLR4 0.5 μM” value amounted to 45.5 and the “Activity relative to compound 1a” value is given as “enhanced”.

As for `CCOC(=O)c1nc(Nc2cc(Oc3cccc(C)c3)cc([N+](=O)[O-])c2)c2ccccc2n1` [Compound 1c, Ethyl 4-((3-nitro-5-(m-tolyloxy)phenyl)amino)quinazoline-2-carboxylate], in data set [1], the “HepG2 MT” value is on record as 109.9. The IL-8 release (% of LPS control) at 0.5 µM in data set [2] came out at 5.8%. The “hTLR4 0.5 μM” value in data set [3] is 14.5.

Regarding `NC(=O)c1nc(Nc2cc(Oc3ccccc3)cc([N+](=O)[O-])c2)c2ccccc2n1` [Compound 9a, 4-((3-nitro-5-phenoxyphenyl)amino)quinazoline-2-carboxamide], the “HepG2 MT” value in data set [1] is on record as 78.4. Further, in data set [2], the IL-8 release (% of LPS control) at 0.5 µM amounted to 0.3%. In addition, the “hTLR4 0.5 μM” value in data set [3] was determined as 0.0.

For `CCOC(=O)c1nc(Nc2cc(N)cc(Oc3ccccc3)c2)c2ccccc2n1` [Compound 5a, Ethyl 4-((3-amino-5-phenoxyphenyl)amino)quinazoline-2-carboxylate], the “HepG2 MT” value in data set [1] was 106.1. In data set [2], this compound had an IL-8 release (% of LPS control) at 0.5 µM of 0.3%. In data set [3], the “hTLR4 0.5 μM” value is given as 0.6 and the “Activity relative to compound 1a” value is listed as “complete loss of activity”.

Regarding `CCOC(=O)c1nc(Nc2cc(Oc3ccccc3C(F)(F)F)cc([N+](=O)[O-])c2)c2ccccc2n1` [Compound 1i, Ethyl 4-((3-nitro-5-(2-(trifluoromethyl)phenoxy)phenyl)amino)quinazoline-2-carboxylate], in data set [1], the “HepG2 MT” value is on record as 67.1. This compound yielded an IL-8 release (% of LPS control) at 0.5 µM in data set [2] of 26.5%. Moreover, the “hTLR4 0.5 μM” value in data set [3] is given as 58.7.

On to `CCOC(=O)c1nc(Nc2cc(Oc3c(C)cccc3C)cc([N+](=O)[O-])c2)c2ccccc2n1` [Compound 1j, Ethyl 4-((3-(2,6-dimethylphenoxy)-5-nitrophenyl)amino)quinazoline-2-carboxylate], for which the “HepG2 MT” value in data set [1] was found to be 106.3. For the same compound, the IL-8 release (% of LPS control) at 0.5 µM in data set [2] was 0%. For the same compound, the “hTLR4 0.5 μM” value in data set [3] is 0.6.

As for `Nc1cc(Nc2nc(C(=O)O)nc3ccccc23)cc(Oc2ccccc2)c1` [Compound 6a, 4-((3-Amino-5-phenoxyphenyl)amino)quinazoline-2-carboxylic acid], the “HepG2 MT” value in data set [1] was determined as 105.0. In addition, the IL-8 release (% of LPS control) at 0.5 µM in data set [2] was determined as 0.3%. In data set [3], the “hTLR4 0.5 μM” value was found to be 1.1.

For the compound `O=C(O)c1nc(Nc2cc(Oc3ccccc3Br)cc([N+](=O)[O-])c2)c2ccccc2n1` [Compound 7g, 4-((3-(2-Bromophenoxy)-5-nitrophenyl)amino)quinazoline-2-carboxylic acid], in data set [1], the “HepG2 MT” value is reported as 96.3. In data set [2], this compound showed an IL-8 release (% of LPS control) at 0.5 µM of 0%. Moreover, the “hTLR4 0.5 μM” value in data set [3] is on record as 1.6.

With `COC(=O)c1nc(Nc2cc(Oc3ccccc3)cc([N+](=O)[O-])c2)c2ccccc2n1` [Compound 10a, Methyl 4-((3-nitro-5-phenoxyphenyl)amino)quinazoline-2-carboxylate], in data set [1], the “HepG2 MT” value was found to be 116.4. In data set [2], the IL-8 release (% of LPS control) at 0.5 µM was determined as 0.2%. Besides, the “hTLR4 0.5 μM” value in data set [3] is reported as 0.4.

Regarding `CC(C)OC(=O)c1nc(Nc2cc(Oc3ccccc3)cc([N+](=O)[O-])c2)c2ccccc2n1` [Compound 11a, Isopropyl 4-((3-nitro-5-phenoxyphenyl)amino)quinazoline-2-carboxylate], the “HepG2 MT” value in data set [1] is recorded as 65.6. In data set [2], this compound gave an IL-8 release (% of LPS control) at 0.5 µM of 2.1%. Also, the “hTLR4 0.5 μM” value in data set [3] turned out to be 7.4.

Regarding `CCOC(=O)c1nc(Nc2cc(Oc3ccccc3Cl)cc([N+](=O)[O-])c2)c2ccccc2n1` [Compound 1f, Ethyl 4-((3-(2-chlorophenoxy)-5-nitrophenyl)amino)quinazoline-2-carboxylate], in data set [1], the “HepG2 MT” value came out at 107.4. Also, in data set [2], the IL-8 release (% of LPS control) at 0.5 µM turned out to be 27.3%. Moreover, in data set [3], the “hTLR4 0.5 μM” value amounted to 73.9 and the “Activity relative to compound 1a” value is on record as “enhanced”.

In the case of `CCOC(=O)c1nc(Nc2cc(Oc3ccccc3I)cc([N+](=O)[O-])c2)c2ccccc2n1` [Compound 1h, Ethyl 4-((3-(2-iodophenoxy)-5-nitrophenyl)amino)quinazoline-2-carboxylate], in data set [1], the “HepG2 MT” value amounted to 93.8. In addition, in data set [2], the IL-8 release (% of LPS control) at 0.5 µM was found to be 34.2%. In data set [3], the “hTLR4 0.5 μM” value worked out at 65.5 and the “Activity relative to compound 1a” value was “enhanced”.

`O=C(O)c1nc(Nc2cc(Oc3ccccc3)cc([N+](=O)[O-])c2)c2ccccc2n1` [Compound 7a, 4-((3-Nitro-5-phenoxyphenyl)amino)quinazoline-2-carboxylic acid]: the “HepG2 MT” value in data set [1] is reported as 84.5. For the same compound, the IL-8 release (% of LPS control) at 0.5 µM in data set [2] was determined as 0.5%. Besides, the “hTLR4 0.5 μM” value in data set [3] is given as 0.6.

Take `CCOC(=O)c1nc(Nc2cc(Oc3ccc4ccccc4c3)cc([N+](=O)[O-])c2)c2ccccc2n1` [Compound 1k, Ethyl 4-((3-(naphthalen-2-yloxy)-5-nitrophenyl)amino)quinazoline-2-carboxylate]: the “HepG2 MT” value in data set [1] was determined as 111.4. The compound also had an IL-8 release (% of LPS control) at 0.5 µM in data set [2] of 0%. For the same compound, in data set [3], the “hTLR4 0.5 μM” value turned out to be 0.8 and the “Activity relative to compound 1a” value is “loss of activity”.

Values taken from patent publication US20150132342A1, “NOVEL IMMUNE ACTIVATORS: SUBSTITUTE 4-AMINOQUINAZOLINES” (The Regents of the University of California, priority 2013, published 2015).
